By logP is commonly meant a log measure of how a compound divides between an organic and an aqueous phase. A lower logP goes with lower lipophilicity. In turn, `CCN(CC)CCOC(=O)/C=C/c1ccc(F)cc1` yielded a logP of 3.52.

In turn, `CCN(CC)CCOC(=O)/C=C/c1cc(OC)c(OC)c(OC)c1` gave a logP of 2.84.

`COc1ccc(/C=C/C(=O)O)cc1` had a lipophilicity (logP) of 2.68.

In turn, `CCN(CC)CCOC(=O)/C=C/c1ccccc1` had a logP of 3.61.

As to `COc1ccc(C=CC(=O)O)cc1OC`, the logP stood at 2.34.

`COC(=O)/C=C/c1ccc(O)c(O)c1` returned a logP of 2.22.

`CCOC(=O)/C=C/c1ccc(O)c(O)c1` gave a logP of 2.56.

Consider `O=C(C=Cc1ccccc1)OCC=Cc1ccccc1`, for which the logP is 4.45.

The compound `O=C(O)C=CC=Cc1ccccc1` came in with a logP of 3.15.

The compound `COc1cc(C=CC(=O)O)ccc1O` came in with a logP of 1.87.

In turn, `O=C(O)/C=C/c1ccc2c(c1)OCO2` displayed a logP of 2.59.

Compound `O=C(O)/C=C/c1ccc(O)cc1` came in with a logP of 1.79.

Consider `CCN(CC)CCOC(=O)C=Cc1ccc(OC)c(OC)c1`, for which the logP stood at 2.88.
